Measured values: patent publication US4478841A, “3-[2-(Tetra- and Hexa- hydro-4-pyridyl)-ethyl]-indoles and their use as medicaments” (Pharmuka Laboratoires, priority 1981, dated 1984)
Read-outs that look alike come from different tables or passages of the source.

How the values were obtained:
[1] = tested on: serotonin uptake, human blood platelets; assay: Inhibition of serotonin uptake by human blood platelets; type: cell-based; settings: Platelet, read-out: Inhibition of serotonin uptake I50
Text: It is known that serotonin uptake by the blood platelets is a good model of the uptake of this amine by the neurons (cf. J. Tuomisto, J. Pharm., Pharmac., 26, 92 (1974). When applied to the study of medicaments, a method involving the use of blood platelets is of great interest because it allows the use of human cells so that its anticipation character is good.
The capacity of products to inhibit serotonin uptake or to induce serotonin release, was shown on human blood platelets, according to J. L. David and Coll. "Platelets Function and Thrombosis, a Review of Methods" p. 335 (Plenum Press, London, 1972).
1. Inhibition of Serotonin uptake
The results are expressed by a 50% inhibiting dose or I50 which represents the product dose, in micromoles per liter, which reduces the rate of serotonin uptake by 50%.

[2] = tested on: serotonin release, human blood platelets; assay: Serotonin release from human blood platelets; type: cell-based; settings: Platelet, product concentration 5 × 10^-5 moles per liter, relative to controls, read-out: Percent of increased serotonin release
Procedure: "Platelets Function and Thrombosis, a Review of Methods" p.
The action of the products on serotonin release is tested at a concentration of 5×10^-5 moles per liter.

[3] = Acute oral toxicity in male CD1 mice; settings: mouse, in vivo, 3 days of observation
Procedure: The acute toxicity of the products has been established in the male CD1 (Charles RIVER) mice following oral administration. The LD50 calculated following 3 days of observation by the cumulative method of J. J. Reed and Coll. (Am. J. Hyg. 27, 493-1938) is 600 mg/kg for compounds of Examples 1 and 2 and about 400 mg/kg for the compound of Example 4.

With `CN(C)CCCN1c2ccccc2CCc2ccccc21` [Imipramine, imipramine, reference compound] the IC50 ([1]; Homo sapiens) was 400 nM and the activation at 50 µM [2] was 13%.

In the case of `CC(N)Cc1ccc(Cl)cc1` (stereo not drawn) [p-chloro-amphetamine, p-chloroamphetamine, reference compound], the IC50 ([1]; Homo sapiens) is reported as 12000 nM and the activation at 50 µM [2] is reported as 51%.

Work on `CC(Cc1c[nH]c2ccccc12)C1=CCNCC1` (stereo not drawn) [Example 2, 3-[2-(1,2,5,6-tetrahydro-4-pyridyl)-2-methyl-ethyl]-indole] yielded an IC50 ([1]; Homo sapiens) of 40 nM, an activation at 50 µM [2] of 68% and an LD50 at 72 h [3] of 600 mg/kg.

Work on `CC(Cc1c[nH]c2ccccc12)C1CCNCC1` (stereo not drawn) [Example 4, 3-[2-(4-piperidyl)-2-methyl-ethyl]-indole] yielded an IC50 ([1]; Homo sapiens) of 10 nM, an activation at 50 µM [2] of 76% and an LD50 at 72 h [3] of ~400 mg/kg.

Compound `C1=C(CCc2c[nH]c3ccccc23)CCNC1` [Example 1, 3-[2-(1,2,5,6-tetrahydro-4-pyridyl)-ethyl]-indole] has an IC50 ([1]; Homo sapiens) of 55 nM, an activation at 50 µM [2] of 85% and an LD50 at 72 h [3] of 600 mg/kg.

Compound `c1ccc2c(CCC3CCNCC3)c[nH]c2c1` [Indalpine, 3-[2-(4-piperidyl)-ethyl]-indole, reference compound] has an IC50 ([1]; human blood platelets, dose reducing the rate of serotonin uptake by 50%) of 35 nM and an activation at 50 µM [2] of 22%.
